≈ marks a conversion by molar mass, not a printed value.
Settings: buffer; pH 7.4; 200.0 µM

Structure (SMILES) | solubility kinetic [µg/mL]
COC(=O)c1ccc(CNC(=O)CSc2nc3ccccc3[nH]2)cc1 | 11.6 (≈ 32.6 µM)
CCn1c(O)c(C=NC2CCCC(C)C2C)sc1=S (stereo not given) | 4.3 (≈ 14.4 µM)
CC1CCCC(C)N1C(=O)COC(=O)c1ccccc1O (stereo not given) | 42.3 (≈ 145 µM)
COCc1cc(NCc2ccc(Cl)cc2)nc(C)n1 | 34.7 (≈ 125 µM)
CCN(CC(=O)NCc1ccco1)S(=O)(=O)c1ccc(OC)cc1 | > 52.9
Cc1ccc(C(=O)ONC(=O)c2ccc(Cl)cc2)cc1[N+](=O)[O-] | 46.8 (≈ 140 µM)
Cc1ccc(NC(=O)CSc2nnc(/N=C/N(C)C)s2)cc1 | > 50.3
O=S(=O)(Nc1ccccc1)c1ccc2c(c1)CCO2 | 37.7 (≈ 137 µM)
Cn1cnc2cc(NCc3cccs3)ccc21 | 27.1 (≈ 111 µM)
CC(C)(C)c1cc(NS(=O)(=O)c2ccc(Br)s2)no1 | 30.1 (≈ 82.4 µM)
O=C(CSC(=S)N1CCOCC1)Nc1nccs1 | 7.9 (≈ 26 µM)
Cc1ccccc1C(=O)NC1CCCN(Cc2ccccc2F)C1 (stereo not given) | 43.2 (≈ 132 µM)
C=CCNC(=O)c1c(O)c2cccc3c2n(c1=O)CCC3 | < 0.3
CSCCC(NC(=O)COc1ccccc1)C(=O)NCc1cccs1 (stereo not given) | > 56.8
CCOC(=O)c1ccc(NC(=S)Nc2cc(C)cc(C)n2)cc1 | < 0.2
Cc1ccc(Cl)cc1NC(=O)CCC(=O)O | > 36.3
O=C(COc1ccc([N+](=O)[O-])cc1Cl)NCC1CCCO1 (stereo not given) | > 47.2
CC1CCCCC1NC(=O)C(C)N1C(=O)c2ccccc2C1=O (stereo not given) | > 47.2
Cc1cc(OC(=O)c2ccccc2F)c([N+](=O)[O-])c(=O)[nH]1 | > 43.8
COc1ccccc1C(=O)COC(=O)COc1ccc(C#N)cc1 | > 48.8
Cc1cc(NC(=O)COC(=O)c2cnccn2)ccc1Br | > 52.5
COc1ccc(NC(=S)N2CCN(S(C)(=O)=O)CC2)cc1 | > 49.4
O=C(NCC1CCCCC1)c1ccc([N+](=O)[O-])cc1 | 5.1 (≈ 19.4 µM)
O=C(COc1ccccc1Cl)N1CCc2ccccc21 | 1.1 (≈ 3.82 µM)

Structure (SMILES) | solubility kinetic [µg/mL]
COc1ccccc1Oc1ccc2c(c1)C(=O)N(CC(=O)O)C2=O | > 49.1
CCN(CC)C(=O)c1sc2nc(-c3ccccc3)ccc2c1N | 19.8 (≈ 60.8 µM)
COc1cc(C(=O)N2c3ccccc3CCC2C)cc(OC)c1OC (stereo not given) | 32.8 (≈ 96.1 µM)
CCOc1ccccc1NS(=O)(=O)c1ccc2[nH]c(=O)[nH]c2c1 | > 50
Cc1ccc(CC(=O)Nc2nccs2)cc1 | 29.8 (≈ 128 µM)
O=C(COC(=O)CC1CCCC1)Nc1ccc(Br)cc1F | 19.2 (≈ 53.6 µM)
CCN(CC)CCCNc1oc(/C=C/c2ccccc2)nc1C#N | > 48.7
Cc1ccc(S(=O)(=O)NCCC(=O)NNc2c(F)c(F)cc(F)c2F)cc1 | > 60.8
CC(=O)c1c(C)nc(-c2ccc(OCC(=O)Nc3ccccc3)cc2)n1O | 51.3 (≈ 140 µM)
COCc1c(C(=O)N2CCN(c3ccccc3C)CC2)oc2ccccc12 | 9.2 (≈ 25.2 µM)
OCCC1CN(CC2CCCCC2)CCN1C1CCCC1 (stereo not given) | 40.8 (≈ 139 µM)
CCC1CCCCN1C(=O)CSc1nc(N)cc(=O)[nH]1 (stereo not given) | 42.2 (≈ 142 µM)
COc1ccc(/C=C2\SC(N3CCCCC3)=NC2=O)cc1 | 1.3 (≈ 4.3 µM)
CCc1ccccc1NC(=S)N1CCN(c2ccccc2F)CC1 | 4.4 (≈ 12.8 µM)
COc1ccc(NC(=S)Nc2ccccc2)cc1 | > 38.8
CCN(CC)C(=O)c1ccc(COc2ccccc2Cl)o1 | 45.5 (≈ 148 µM)
N#Cc1c(N2CCNCC2)nc(-c2ccco2)c2c1CCCC2 | > 46.3
Cc1[nH]c2ccc(C(C)C)cc2c1CC(=O)O | > 34.7
N#C/C(=C\c1cccnc1)C(=O)Nc1ccccc1[N+](=O)[O-] | 30.2 (≈ 103 µM)
COc1ccc(CNC(=S)Nc2ccccc2)cc1 | > 40.9
COC(=O)c1sc(NC(=O)c2ccncc2)nc1C | 27.3 (≈ 98.4 µM)
S=C(NCCCN1CCOCC1)Nc1cccc(Cl)c1 | > 47.1
O=C(COC(=O)c1ccccc1Br)NC1CCCCCCC1 | 25.1 (≈ 68.2 µM)
O=C(NCc1ccc2c(c1)OCO2)C1CCC(=O)N1C1CCCC1 (stereo not given) | > 49.6

Structure (SMILES) | solubility kinetic [µg/mL]
COC(=O)CC1C(=O)NCCN1C(=O)c1ccc([N+](=O)[O-])cc1 (stereo not given) | > 48.2
COc1ccccc1-n1ccnc1SCC(=O)NC(C)(C)C | 43.9 (≈ 137 µM)
CSc1nc([O-])cc(=O)n1-c1ccc(F)cc1.[K+] | > 43.6
COc1cnc(NS(=O)(=O)c2ccc(N)cc2)nc1 | > 42
Cc1ccc2c(c1)c1c(n2CC(O)CN2CCCCC2C)CCCC1 (stereo not given) | 29.8 (≈ 87.5 µM)
COc1ccccc1CCNC(=O)c1nccnc1C(=O)O | > 45.2
CS(=O)(=O)N(CC(=O)NCCSC1CCCCC1)c1ccccc1 | 40.5 (≈ 109 µM)
Cc1cccc(C(=O)OCC(=O)NCC2COc3ccccc3O2)c1 (stereo not given) | 5.9 (≈ 17.3 µM)
Cc1ccsc1C(=O)NCc1ccc(F)cc1 | > 37.4
Cc1ccc(C(=O)Nc2nc3ccccc3[nH]2)cc1 | 2.4 (≈ 9.55 µM)
Cc1cc(C)cc(Oc2coc3c(CN(C)C)c(O)ccc3c2=O)c1 | > 50.9
O=C1CSC(c2ccncc2)N1Cc1ccc(F)cc1 (stereo not given) | > 43.3
Nc1nc(SCCO)[nH]c(=O)c1NC(=O)c1ccco1 | > 44.4
COc1ccc(NC(=O)CSc2nc3ccc(OC)cc3[nH]2)cc1 | 6 (≈ 17.5 µM)
COc1ccc2oc(-c3ccccc3)c(C(=O)N(C)C)c2c1 | > 44.3
COc1ccc(C(=O)CSc2nccn2C)c(OC)c1 | > 43.9
CN1CCN(c2nc3c(c(=O)[nH]c(=O)n3C)n2Cc2ccccc2)CC1 | 52.7 (≈ 149 µM)
O=C(CN1C(=O)C(=O)N(Cc2ccco2)C1=O)Nc1ccccc1 | > 49.1
COC(=O)/C(C#N)=C/c1ccc(N2CCOCC2)c([N+](=O)[O-])c1 | 11 (≈ 34.7 µM)
O=C(NCc1ccccc1Cl)c1cc2ccccc2oc1=O | < 0.7
CCC(=NCCc1ccccc1)c1c(O)n(C)c(=O)n(C)c1=O | 42.3 (≈ 134 µM)
COc1ccc(C(=O)CC(=O)C(=O)Nc2ccccc2)cc1 | 34.6 (≈ 116 µM)
CC(OC(=O)Cn1cc(C(F)(F)F)ccc1=O)C(=O)N(C)c1ccccc1 (stereo not given) | 57.2 (≈ 150 µM)
CC(C)c1ccc(/C=C2\NC(=O)NC2=O)cc1 | 13.9 (≈ 60.4 µM)

Structure (SMILES) | solubility kinetic [µg/mL]
CS(=O)(=O)Nc1ccc(Oc2ncccn2)cc1 | > 39.8
Cc1ccc(/C=N/NC(=O)c2ccc3nc[nH]c3c2)s1 | > 42.7
O=C(O)c1cc([N+](=O)[O-])ccc1NCCCc1ccccc1 | > 45
CCOC(=O)C1CCN(C(=S)NC2CC3C=CC2C3)CC1 (stereo not given) | > 46.3
Cc1nc2ccc(-c3nc4ccc(N)cc4[nH]3)cc2[nH]1 | 39.4 (≈ 150 µM)
COc1ccc(C(=O)O/N=C(/c2ccccc2)c2ccncc2)cc1 | 5.6 (≈ 16.8 µM)
CC(NC(=O)c1ccco1)c1ccc(-n2ccnc2)cc1 (stereo not given) | > 42.2
O=C(Cn1c(C(=O)O)cc2ccccc21)c1ccccc1 | 39.2 (≈ 140 µM)
O=c1c2ccccc2[nH]c(=S)n1-c1cccnc1 | 7.6 (≈ 29.8 µM)
O=C(COC(=O)C1CCCO1)Nc1nc(-c2ccc(F)cc2)cs1 (stereo not given) | > 52.6
Nc1ncnc(Nc2ccccc2)n1 | > 28.1
Cc1cccc(OCC(=O)Nc2ccc3oc(=O)ccc3c2)c1 | 3.3 (≈ 10.7 µM)
Cc1ncc2c(n1)-c1cc(F)ccc1SC2 | 28.9 (≈ 124 µM)
O=C(COC(=O)CC1CC2CCC1C2)NCc1ccccc1 (stereo not given) | > 45.2
CCN1C(=O)c2ccc(C(=O)Nc3ncc(C)s3)cc2C1=O | 5.8 (≈ 18.4 µM)
CN(C)c1ccc(-n2cccc2/C=C/[N+](=O)[O-])cc1 | < 0.2
Cn1c(COc2ccc(F)cc2)nc2ccccc21 | 36.3 (≈ 142 µM)
CC(=O)N/C(=N/c1nc(C)cc(C)n1)Nc1ccc(F)cc1F | 1.6 (≈ 5.01 µM)
Cc1ccc(NC(=O)c2cc(=O)[nH]c3ccccc23)cc1C | < 0.3
O=[N+]([O-])c1ccccc1S(=O)(=O)N1CCN(c2ccccc2)CC1 | 7.2 (≈ 20.7 µM)
CC(=O)Nc1ccccc1C(=O)OCC(=O)Nc1ncccn1 | > 47.1
Fc1ccc(NC(=S)N2CCOCC2)c(F)c1 | > 38.7
Cc1cccc(COc2ccc(/C=C3/C(=O)N(C)C(=S)N3C)cc2)c1 | 5.4 (≈ 15.3 µM)
CCc1nnc(NC(=O)CSc2nnc3nc(C)cc(C)n23)s1 | > 52.4

Structure (SMILES) | solubility kinetic [µg/mL]
Cn1c(C(=O)Nc2ccc(Cl)cc2)cc2cc(Cl)ccc21 | < 0.3
Cc1cc(-c2ccccc2)c2c(n1)sc1c(O)cc(=O)[nH]c12 | > 46.3
O=C(NN=C1CCCC1)c1ccc(Cl)cc1 | > 35.5
COc1ccc(/C=C/c2c([N+](=O)[O-])c(=O)n(C)c(=O)n2C)cc1 | 3.4 (≈ 10.7 µM)
COc1ccc(-c2cc(C(F)(F)F)c(C#N)c(=O)[nH]2)cc1 | 21.2 (≈ 72.1 µM)
COc1ccc(C(C)(C)C)cc1NC(=O)C1=CC=CN2CCS(=O)(=O)N=C12 | 1.7 (≈ 4.36 µM)
CC1CCC(NC(=O)CCN2C(=O)C3CC=CCC3C2=O)CC1 (stereo not given) | > 47.8
O=C(O)c1cccc2c1C(=O)N(C1CCCC1)C2 | 34 (≈ 139 µM)
Cc1nc(C(=O)NCC(=O)c2ccc(Cl)cc2)c(C(F)(F)F)o1 | 8.4 (≈ 24.2 µM)
COc1c(-c2ccc([N+](=O)[O-])cc2[N+](=O)[O-])c(=O)n(C)c(=O)n1C | > 50.4
CCc1ccc(N2C(=O)CN(Cc3sccc3C)C2=S)cc1 | < 0.4
CN(C(=O)COC(=O)c1cnc(Cl)c(Cl)c1)C1CCCCC1 | 41.7 (≈ 121 µM)
COc1ccccc1N1CCN(Cc2cnc(-c3ccccc3)[nH]2)CC1 | 15.1 (≈ 43.3 µM)
CC(C)(C)NC(=O)C(=O)NC(=O)c1c(F)cccc1Cl | 36.2 (≈ 120 µM)
N#Cc1ccccc1OCC(=O)NC(=O)NC1CCS(=O)(=O)C1 (stereo not given) | > 50.6
O=C(NCc1ccccc1)Nc1cccc2ccccc12 | 0.6 (≈ 2.17 µM)
Cc1ccc(C(=O)NCCC(=O)N2CCOCC2)cc1 | > 41.5
CCOC(=O)NC(=O)/C(C#N)=C/c1ccc(N(C)C)cc1 | 15.1 (≈ 52.6 µM)
Cc1cc2sc3nc(=O)n(-c4ccccc4)c(=O)n3c2cc1C | 5.8 (≈ 17.9 µM)
CC1(C)C(c2cccs2)=[N+]([O-])C2(CCCCC2=O)N1O (stereo not given) | 41.4 (≈ 141 µM)
O=C1ON=C(c2ccc([N+](=O)[O-])cc2)/C1=C/c1ccccc1O | > 46.5
CCCC(=O)N/C(N)=N/c1nc(C)c2ccccc2n1 | 15.3 (≈ 56.4 µM)
Cc1ccc(Cc2cnc(NC(=O)C3=NCCN3)s2)cc1 | 11.5 (≈ 38.3 µM)
CCCOCc1ccc(O)c2ncccc12 | 19.6 (≈ 90.2 µM)

Source: PubChem BioAssay AID1996
